Assay results reported in PubChem BioAssay (NCI).
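Values below derive from 48-hour exposures of cells grown in 96-well plates, with endpoints linearly interpolated between the two concentrations bracketing the appropriate inhibition level. TGI: total growth inhibition.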

Columns and labels:
Assay in all cases: NCI-60 cell line screen, 48 h
HT29 colon = system: HT29 colon
SK-OV-3 ovarian = system: SK-OV-3 ovarian
NCI/ADR-RES ovarian = system: NCI/ADR-RES ovarian
SK-MEL-28 melanoma = system: SK-MEL-28 melanoma
SW-620 colon = system: SW-620 colon
786-0 renal = system: 786-0 renal
A549 NSCLC = system: A549 NSCLC
UACC-62 melanoma = system: UACC-62 melanoma
NCI-H23 lung = system: NCI-H23 lung
MDA-MB-435 = system: MDA-MB-435
HOP-62 NSCLC = system: HOP-62 NSCLC
OVCAR-5 ovarian = system: OVCAR-5 ovarian
MOLT-4 leukemia = system: MOLT-4 leukemia
A498 renal = system: A498 renal
MALME-3M melanoma = system: MALME-3M melanoma
CAKI-1 renal = system: CAKI-1 renal

| SMILES | TGI (HT29 colon) | TGI (SK-OV-3 ovarian) | TGI (NCI/ADR-RES ovarian) | TGI (SK-MEL-28 melanoma) | TGI (SW-620 colon) | TGI (786-0 renal) | TGI (A549 NSCLC) | TGI (UACC-62 melanoma) | TGI (NCI-H23 lung) | TGI (MDA-MB-435) | TGI (HOP-62 NSCLC) | TGI (OVCAR-5 ovarian) | TGI (MOLT-4 leukemia) | TGI (A498 renal) | TGI (MALME-3M melanoma) | TGI (CAKI-1 renal) |
| --- | --- | --- | --- | --- | --- | --- | --- | --- | --- | --- | --- | --- | --- | --- | --- | --- |
| COc1ccc(C(OCC2OC(n3cc(C)c(=O)[nH]c3=O)CC2n2cc(Cn3cc(Br)c(=O)[nH]c3=O)nn2)(c2ccccc2)c2ccccc2)cc1 (centres undefined) | > 100 µM | > 100 µM | > 100 µM | > 100 µM | > 100 µM | > 100 µM | > 100 µM | > 100 µM | > 100 µM | > 100 µM | > 100 µM | > 100 µM | > 100 µM | > 100 µM | > 100 µM | > 100 µM |
| CCOP(=O)(O)C(C)(C)NC | > 100 µM | > 100 µM | > 100 µM | > 100 µM | > 100 µM | > 100 µM | > 100 µM | > 100 µM | > 100 µM | > 100 µM | > 100 µM | > 100 µM | > 100 µM | > 100 µM | > 100 µM |  |
| O=c1c2c(-c3ccccc3)onc2n(-c2ccccc2)c(=O)n1-c1ccccc1 | 45.3 µM | > 100 µM | 43.2 µM |  | > 100 µM | > 100 µM | > 100 µM | 32 µM | 47.8 µM | > 100 µM | 54.9 µM | 44 µM | > 100 µM | > 100 µM | 34.5 µM | > 100 µM |
| COc1ccc(/C=N/n2c(-c3ccccc3)n[nH]c2=O)cc1 | > 100 µM | > 100 µM | > 100 µM | > 100 µM | > 100 µM | > 100 µM | > 100 µM | > 100 µM | > 100 µM | > 100 µM | > 100 µM | > 100 µM | > 100 µM | > 100 µM | > 100 µM | > 100 µM |
| N#C/C(N)=C(\C#N)NC=NCc1ccccc1 | > 100 µM | > 100 µM | > 100 µM | > 100 µM | > 100 µM | > 100 µM | > 100 µM | > 100 µM | > 100 µM | > 100 µM | > 100 µM | > 100 µM | > 100 µM | > 100 µM | > 100 µM | > 100 µM |
| COc1ccc(-c2nc(SCC(=O)N/N=C/c3ccc(O)c(OC)c3)[nH]c2-c2ccc(OC)cc2)cc1 | 46.1 µM | > 100 µM | > 100 µM | 74.8 µM | > 100 µM | 42 µM | > 100 µM | 27.4 µM | 49.2 µM | > 100 µM | 71.7 µM | 63.7 µM |  | 33.2 µM | 81.8 µM | > 100 µM |
| CC(C)(C)C(=O)OC(N)/C=C/c1ccccc1 (centres undefined) | > 100 µM | > 100 µM | > 100 µM | > 100 µM | > 100 µM | > 100 µM | > 100 µM | > 100 µM | > 100 µM | > 100 µM | > 100 µM | > 100 µM | > 100 µM | > 100 µM | > 100 µM | > 100 µM |
| CCCCn1c(C)c2c(c1C)C(=O)N(CC(O)CN1CCc3ccccc3C1)C2=O (centres undefined) | > 100 µM | > 100 µM | > 100 µM | > 100 µM | > 100 µM | > 100 µM | > 100 µM | > 100 µM | > 100 µM | > 100 µM | > 100 µM | > 100 µM | > 100 µM | > 100 µM | > 100 µM | > 100 µM |
| CCCCCC(/C=C/C1CCC(=O)C1CC#C[Si](C)(C)C)OCc1ccccc1 (centres undefined) | 31.1 µM | > 100 µM | 41.8 µM | > 58 µM | > 57 µM | 28.3 µM | 70.7 µM | 30.6 µM | 73.6 µM | 41.7 µM | 41.5 µM | 39.5 µM | > 68.9 µM | > 85.8 µM | 37.8 µM | 36.8 µM |
| C[C@@H]1CCC2[C@@H](C)[C@@H](OCCO[C@H]3OC4O[C@@]5(C)CCC6[C@H](C)CCC([C@H]3C)[C@@]46OO5)OC3O[C@@]4(C)CCC1[C@]32OO4 (some centres undefined) | > 100 µM | > 100 µM | 3.14 µM | > 100 µM | > 100 µM | > 100 µM | > 100 µM | > 100 µM | 68.9 µM | 98.9 µM | > 100 µM | > 100 µM | > 100 µM | > 77.1 µM | > 100 µM | 2.07 µM |
| COc1ccc(-c2c(C#N)c(O)n(NS(=O)(=O)c3ccc(C)cc3)c(=O)c2C#N)cc1 | > 100 µM | > 100 µM | > 100 µM | > 100 µM | > 100 µM | > 100 µM | > 100 µM | > 100 µM |  | > 100 µM | > 100 µM | > 100 µM | 66.1 µM | > 100 µM | > 100 µM | > 100 µM |
| O=C(O)CCN(CCC(=O)O)c1ccc(/C=C2\SC(=S)NC2=O)cc1 | > 100 µM | > 100 µM | > 100 µM | > 100 µM | > 100 µM | > 100 µM | > 100 µM | > 100 µM | > 100 µM | > 100 µM | > 100 µM | > 100 µM | > 100 µM | > 100 µM | > 100 µM | > 100 µM |
| CC1(C)OC(=C(C#N)C#N)C(C#N)=C1/C=C/c1ccncc1 | 4.07 µM | 16.8 µM | 4.13 µM | 5.43 µM | 4.41 µM | 3.66 µM | 34.1 µM | 3.93 µM | 5.56 µM | 10.6 µM |  | 8.11 µM | 4.42 µM | 19.4 µM | 6.31 µM | 3.64 µM |
| CC(/C=N\NC(=S)N1CCCCC1)=N/NC(=S)N1CCCCC1 | 62.4 µM | 6.08 µM | 6.9 µM | 18.1 µM | 14.7 µM | 13.2 µM | 18.5 µM | 5.94 µM | 19.2 µM | 17.5 µM | 11 µM | 21.8 µM | > 100 µM | 3.59 µM | 14.9 µM | 10.7 µM |
| CC(=O)Nc1ccc2cc(C)c(=O)[nH]c2n1 | > 100 µM | > 100 µM | > 100 µM | > 100 µM | > 100 µM | > 100 µM | > 100 µM | > 100 µM | > 100 µM | > 100 µM |  | > 100 µM | > 100 µM | > 100 µM | > 100 µM | > 100 µM |
